As usually defined, the IC50 is the point on the concentration scale where inhibition reaches its midpoint. The low end stands for higher potency, the high end for lower potency.

In PMC3839082 (Proteins, 2011) one finds IC50 data, which are given here for one compound.

SMILES strings stand for the structures.

The assay addresses hCINAP (Homo sapiens, UniProt Q9Y3D8). Nature of the assay: coupled PK/LDH adenylate kinase assay. In kind it is biochemical.

Sequence of hCINAP (Q9Y3D8 whole entry): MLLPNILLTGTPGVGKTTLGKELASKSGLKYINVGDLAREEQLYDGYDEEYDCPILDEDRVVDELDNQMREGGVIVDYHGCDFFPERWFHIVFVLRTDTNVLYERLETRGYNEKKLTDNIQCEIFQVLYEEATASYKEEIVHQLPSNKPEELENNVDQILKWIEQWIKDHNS

Turning to `Nc1ncnc2c1ncn2[C@@H]1O[C@H](COP(=O)(O)OP(=O)(O)OP(=O)(O)OP(=O)(O)OP(=O)(O)OC[C@H]2O[C@@H](n3cnc4c(N)ncnc43)[C@H](O)[C@@H]2O)[C@@H](O)[C@H]1O` [AP5A], the IC50 came out at 0.027 ± 0.00293 µM.
